From ChEMBL document CHEMBL4330132, “5-Keto-3-cyano-2,4-diaminothiophenes as selective maternal embryonic leucine zipper kinase inhibitors” (Bioorg Med Chem Lett, 2019)

Assays:
[1] = tested on: Tyrosine-protein kinase ABL1 (Homo sapiens), P00519 [Q252H]; assay: Binding affinity to human non-phosphorylated ABL1 Q252H mutant (S229 to K512 residues) expressed in mammalian expression system assessed as residual binding level at 1 uM by Kinomescan method relative to control
[2] = tested on: Tyrosine-protein kinase ABL1 (Homo sapiens), P00519 [T315I]; assay: Binding affinity to human non-phosphorylated ABL1 T315I mutant (S229 to K512 residues) expressed in mammalian expression system assessed as residual binding level at 1 uM by Kinomescan method relative to control
[3] = biological target: Cyclin-dependent kinase 2 (Homo sapiens) (UniProt P24941); assay: Binding affinity to wild-type human full length CDK2 (M1 to L298 residues) expressed in bacterial expression system assessed as residual binding level at 1 uM by Kinomescan method relative to control
[4] = biological target: Casein kinase II subunit alpha (Homo sapiens) (UniProt P68400); assay: Binding affinity to wild-type human full length CSNK2A1 (M1 to Q391 residues) expressed in mammalian expression system assessed as residual binding level at 1 uM by Kinomescan method relative to control
[5] = tested on: Epidermal growth factor receptor (Homo sapiens), P00533 [UNDEFINED MUTATION]; assay: Binding affinity to human partial length EGFR L747-S752del/P753S mutant expressed in bacterial expression system assessed as residual binding level at 1 uM by Kinomescan method relative to control
[6] = biological target: Ephrin type-B receptor 6 (Homo sapiens) (UniProt O15197); assay: Binding affinity to wild-type human partial length EPHB6 (Q634 to P948 residues) expressed in mammalian expression system assessed as residual binding level at 1 uM by Kinomescan method relative to control
[7] = biological target: Tyrosine-protein kinase Fer (Homo sapiens) (UniProt P16591); assay: Binding affinity to wild-type human partial length FER (S542 to T822 residues) expressed in bacterial expression system assessed as residual binding level at 1 uM by Kinomescan method relative to control
[8] = biological target: Tyrosine-protein kinase Fyn (Homo sapiens) (UniProt P06241); assay: Binding affinity to wild-type human partial length FYN (T243 to L534 residues) expressed in bacterial expression system assessed as residual binding level at 1 uM by Kinomescan method relative to control
[9] = biological target: Mitogen-activated protein kinase 8 (Homo sapiens) (UniProt P45983); assay: Binding affinity to wild-type human full length JNK1 (M1 to Q384 residues) expressed in mammalian expression system assessed as residual binding level at 1 uM by Kinomescan method relative to control
[10] = biological target: Serine/threonine-protein kinase 10 (Homo sapiens) (UniProt O94804); assay: Binding affinity to wild-type human partial length LOK (E16 to V314 residues) expressed in bacterial expression system assessed as residual binding level at 1 uM by Kinomescan method relative to control
[11] = biological target: Leucine-rich repeat serine/threonine-protein kinase 2 (Homo sapiens) (UniProt Q5S007); assay: Binding affinity to wild-type human partial length LRRK2 (H970 to E2527 residues) expressed in mammalian expression system assessed as residual binding level at 1 uM by Kinomescan method relative to control
[12] = tested on: Leucine-rich repeat serine/threonine-protein kinase 2 (Homo sapiens), Q5S007 [G2019S]; assay: Binding affinity to human partial length LRRK2 G2019S mutant (H970 to E2527 residues) expressed in mammalian expression system assessed as residual binding level at 1 uM by Kinomescan method relative to control
[13] = biological target: Leukocyte tyrosine kinase receptor (Homo sapiens) (UniProt P29376); assay: Binding affinity to wild-type human partial length LTK (P422 to S744 residues) expressed in bacterial expression system assessed as residual binding level at 1 uM by Kinomescan method relative to control
[14] = biological target: MAP kinase-interacting serine/threonine-protein kinase 1 (Homo sapiens) (UniProt Q9BUB5); assay: Binding affinity to wild-type human full length MKNK1 (M1 to L424 residues) expressed in mammalian expression system assessed as residual binding level at 1 uM by Kinomescan method relative to control
[15] = biological target: Serine/threonine-protein kinase MRCK alpha (Homo sapiens) (UniProt Q5VT25); assay: Binding affinity to wild-type human partial length MRCKA (L57 to V418 residues) expressed in bacterial expression system assessed as residual binding level at 1 uM by Kinomescan method relative to control
[16] = biological target: Serine/threonine-protein kinase mTOR (Homo sapiens) (UniProt P42345); assay: Binding affinity to wild-type human partial length MTOR (L1382 to W2549 residues) expressed in mammalian expression system assessed as residual binding level at 1 uM by Kinomescan method relative to control
[17] = biological target: Serine/threonine-protein kinase Nek5 (Homo sapiens) (UniProt Q6P3R8); assay: Binding affinity to wild-type human partial length NEK5 (M1 to M279 residues) expressed in bacterial expression system assessed as residual binding level at 1 uM by Kinomescan method relative to control
[18] = biological target: Mitogen-activated protein kinase 13 (Homo sapiens) (UniProt O15264); assay: Binding affinity to wild-type human full length p38-delta (M1 to L365 residues) expressed in bacterial expression system assessed as residual binding level at 1 uM by Kinomescan method relative to control
[19] = biological target: Serine/threonine-protein kinase PAK 1 (Homo sapiens) (UniProt Q13153); assay: Binding affinity to wild-type human partial length PAK1 (S149 to H545 residues) expressed in bacterial expression system assessed as residual binding level at 1 uM by Kinomescan method relative to control
[20] = biological target: Cyclin-dependent kinase 14 (Homo sapiens) (UniProt O94921); assay: Binding affinity to wild-type human full length PFTK1 (M1 to H451 residues) expressed in bacterial expression system assessed as residual binding level at 1 uM by Kinomescan method relative to control
[21] = biological target: Protein-tyrosine kinase 2-beta (Homo sapiens) (UniProt Q14289); assay: Binding affinity to wild-type human full length PYK2 (M1 to E967 residues) expressed in bacterial expression system assessed as residual binding level at 1 uM by Kinomescan method relative to control
[22] = biological target: Ribosomal protein S6 kinase beta-1 (Homo sapiens) (UniProt P23443); assay: Binding affinity to wild-type human partial length S6K1 (M1 to S421 residues) expressed in mammalian expression system assessed as residual binding level at 1 uM by Kinomescan method relative to control
[23] = biological target: Serine/threonine-protein kinase 32B (Homo sapiens) (UniProt Q9NY57); assay: Binding affinity to wild-type human full length YANK2 (M1 to S414 residues) expressed in bacterial expression system assessed as residual binding level at 1 uM by Kinomescan method relative to control
[24] = biological target: Mitogen-activated protein kinase kinase kinase 20 (Homo sapiens) (UniProt Q9NYL2); assay: Binding affinity to wild-type human partial length ZAK (M1 to L331 residues) expressed in bacterial expression system assessed as residual binding level at 1 uM by Kinomescan method relative to control

Chain of Tyrosine-protein kinase Fyn (Homo sapiens) (P06241 2-537 limits assumed): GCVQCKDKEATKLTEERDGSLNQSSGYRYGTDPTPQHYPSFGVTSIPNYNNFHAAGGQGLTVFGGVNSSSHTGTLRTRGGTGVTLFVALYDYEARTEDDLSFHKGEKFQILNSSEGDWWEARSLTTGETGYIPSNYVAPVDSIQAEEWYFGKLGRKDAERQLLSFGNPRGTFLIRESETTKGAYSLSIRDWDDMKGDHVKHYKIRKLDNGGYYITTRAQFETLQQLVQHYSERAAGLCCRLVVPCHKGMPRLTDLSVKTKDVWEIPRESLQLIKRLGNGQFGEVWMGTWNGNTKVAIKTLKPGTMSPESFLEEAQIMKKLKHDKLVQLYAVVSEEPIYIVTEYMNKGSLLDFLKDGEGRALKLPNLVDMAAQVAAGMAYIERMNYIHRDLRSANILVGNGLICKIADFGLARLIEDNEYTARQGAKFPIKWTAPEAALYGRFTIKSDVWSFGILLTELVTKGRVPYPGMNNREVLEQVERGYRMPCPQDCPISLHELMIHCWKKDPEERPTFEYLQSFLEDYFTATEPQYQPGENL
Chain of Serine/threonine-protein kinase PAK 1 (Homo sapiens) (Q13153 whole entry, the tested form may be a part): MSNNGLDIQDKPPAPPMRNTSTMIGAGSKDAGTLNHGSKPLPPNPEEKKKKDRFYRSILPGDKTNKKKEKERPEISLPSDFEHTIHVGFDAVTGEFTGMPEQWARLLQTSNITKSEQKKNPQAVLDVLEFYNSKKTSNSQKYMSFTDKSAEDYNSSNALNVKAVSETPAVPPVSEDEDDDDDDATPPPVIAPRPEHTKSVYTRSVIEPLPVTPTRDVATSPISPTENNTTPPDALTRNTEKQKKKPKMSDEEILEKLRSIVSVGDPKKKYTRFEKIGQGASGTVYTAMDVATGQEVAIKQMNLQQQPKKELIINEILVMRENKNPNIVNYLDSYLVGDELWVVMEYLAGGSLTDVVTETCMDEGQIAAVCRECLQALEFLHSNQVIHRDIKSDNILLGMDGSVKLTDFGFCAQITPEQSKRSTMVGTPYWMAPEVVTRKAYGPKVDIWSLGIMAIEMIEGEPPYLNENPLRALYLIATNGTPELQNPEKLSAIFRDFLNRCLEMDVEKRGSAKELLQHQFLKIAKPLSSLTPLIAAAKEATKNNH
Chain of Ephrin type-B receptor 6 (Homo sapiens) (O15197 whole entry, the tested form may be a part): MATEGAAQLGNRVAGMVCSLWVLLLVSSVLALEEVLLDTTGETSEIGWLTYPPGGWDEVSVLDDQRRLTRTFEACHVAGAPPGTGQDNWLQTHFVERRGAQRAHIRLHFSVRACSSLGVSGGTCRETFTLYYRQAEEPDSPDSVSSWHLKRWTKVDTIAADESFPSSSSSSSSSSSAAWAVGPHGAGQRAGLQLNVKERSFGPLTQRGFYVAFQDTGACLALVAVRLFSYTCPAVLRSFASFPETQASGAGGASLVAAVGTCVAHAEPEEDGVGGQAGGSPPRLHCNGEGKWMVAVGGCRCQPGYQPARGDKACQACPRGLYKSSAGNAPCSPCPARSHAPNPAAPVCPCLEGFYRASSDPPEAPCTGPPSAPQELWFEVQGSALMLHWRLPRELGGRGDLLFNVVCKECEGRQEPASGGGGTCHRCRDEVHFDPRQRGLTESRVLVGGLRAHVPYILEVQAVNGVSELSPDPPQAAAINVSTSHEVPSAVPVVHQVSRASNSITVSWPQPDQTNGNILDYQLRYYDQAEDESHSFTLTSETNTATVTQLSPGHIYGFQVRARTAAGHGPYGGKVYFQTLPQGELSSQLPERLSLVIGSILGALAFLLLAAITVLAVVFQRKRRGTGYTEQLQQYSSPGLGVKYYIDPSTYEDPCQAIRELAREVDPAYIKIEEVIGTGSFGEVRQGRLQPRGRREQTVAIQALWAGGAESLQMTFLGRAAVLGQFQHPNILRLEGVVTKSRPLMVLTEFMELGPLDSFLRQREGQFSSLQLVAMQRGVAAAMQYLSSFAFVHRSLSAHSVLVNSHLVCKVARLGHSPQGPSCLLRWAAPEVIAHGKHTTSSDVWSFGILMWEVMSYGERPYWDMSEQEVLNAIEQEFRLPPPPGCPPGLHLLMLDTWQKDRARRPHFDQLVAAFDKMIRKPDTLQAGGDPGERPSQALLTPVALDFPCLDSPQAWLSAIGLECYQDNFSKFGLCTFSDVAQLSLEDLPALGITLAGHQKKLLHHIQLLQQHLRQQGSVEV
Chain of Cyclin-dependent kinase 14 (Homo sapiens) (O94921 whole entry, the tested form may be a part): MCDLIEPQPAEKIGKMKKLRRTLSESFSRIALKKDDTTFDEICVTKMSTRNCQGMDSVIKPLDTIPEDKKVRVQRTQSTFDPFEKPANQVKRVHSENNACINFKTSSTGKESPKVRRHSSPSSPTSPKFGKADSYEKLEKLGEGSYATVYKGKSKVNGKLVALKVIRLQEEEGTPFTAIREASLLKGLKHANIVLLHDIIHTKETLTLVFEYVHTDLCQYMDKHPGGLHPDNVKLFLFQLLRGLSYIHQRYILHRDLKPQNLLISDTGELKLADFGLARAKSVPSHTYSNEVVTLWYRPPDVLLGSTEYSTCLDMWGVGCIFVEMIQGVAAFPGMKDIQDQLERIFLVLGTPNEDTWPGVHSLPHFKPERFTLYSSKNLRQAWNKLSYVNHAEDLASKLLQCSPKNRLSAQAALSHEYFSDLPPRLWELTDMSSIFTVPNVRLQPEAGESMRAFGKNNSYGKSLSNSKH
Chain of Casein kinase II subunit alpha (Homo sapiens) (P68400 whole entry, looked up, the tested form may be a part): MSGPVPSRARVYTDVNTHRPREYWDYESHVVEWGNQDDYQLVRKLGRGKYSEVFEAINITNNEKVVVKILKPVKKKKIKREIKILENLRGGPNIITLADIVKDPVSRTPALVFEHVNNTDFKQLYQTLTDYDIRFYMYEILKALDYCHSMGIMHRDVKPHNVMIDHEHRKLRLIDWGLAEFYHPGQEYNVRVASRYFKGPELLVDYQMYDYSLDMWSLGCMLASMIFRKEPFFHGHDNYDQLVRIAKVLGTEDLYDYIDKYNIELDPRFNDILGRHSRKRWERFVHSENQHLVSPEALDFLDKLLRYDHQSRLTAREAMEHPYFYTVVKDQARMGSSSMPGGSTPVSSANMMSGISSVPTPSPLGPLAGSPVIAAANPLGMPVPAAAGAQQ
Chain of Serine/threonine-protein kinase 32B (Homo sapiens) (Q9NY57 whole entry, the tested form may be a part): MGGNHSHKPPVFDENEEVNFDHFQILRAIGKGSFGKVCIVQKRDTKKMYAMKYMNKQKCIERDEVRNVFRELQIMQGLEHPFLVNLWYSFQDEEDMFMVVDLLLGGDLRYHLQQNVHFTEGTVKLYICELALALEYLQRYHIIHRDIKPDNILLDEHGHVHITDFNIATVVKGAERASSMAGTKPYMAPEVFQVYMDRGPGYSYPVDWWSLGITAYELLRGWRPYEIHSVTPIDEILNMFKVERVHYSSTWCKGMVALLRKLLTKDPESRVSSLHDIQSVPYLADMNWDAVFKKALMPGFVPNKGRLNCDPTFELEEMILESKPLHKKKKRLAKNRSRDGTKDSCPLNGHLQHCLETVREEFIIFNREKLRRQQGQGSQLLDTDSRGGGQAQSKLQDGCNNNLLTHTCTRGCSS
Chain of Epidermal growth factor receptor (Homo sapiens), P00533 [UNDEFINED MUTATION] (P00533 whole entry, looked up, stated change not applied, the tested form may be a part): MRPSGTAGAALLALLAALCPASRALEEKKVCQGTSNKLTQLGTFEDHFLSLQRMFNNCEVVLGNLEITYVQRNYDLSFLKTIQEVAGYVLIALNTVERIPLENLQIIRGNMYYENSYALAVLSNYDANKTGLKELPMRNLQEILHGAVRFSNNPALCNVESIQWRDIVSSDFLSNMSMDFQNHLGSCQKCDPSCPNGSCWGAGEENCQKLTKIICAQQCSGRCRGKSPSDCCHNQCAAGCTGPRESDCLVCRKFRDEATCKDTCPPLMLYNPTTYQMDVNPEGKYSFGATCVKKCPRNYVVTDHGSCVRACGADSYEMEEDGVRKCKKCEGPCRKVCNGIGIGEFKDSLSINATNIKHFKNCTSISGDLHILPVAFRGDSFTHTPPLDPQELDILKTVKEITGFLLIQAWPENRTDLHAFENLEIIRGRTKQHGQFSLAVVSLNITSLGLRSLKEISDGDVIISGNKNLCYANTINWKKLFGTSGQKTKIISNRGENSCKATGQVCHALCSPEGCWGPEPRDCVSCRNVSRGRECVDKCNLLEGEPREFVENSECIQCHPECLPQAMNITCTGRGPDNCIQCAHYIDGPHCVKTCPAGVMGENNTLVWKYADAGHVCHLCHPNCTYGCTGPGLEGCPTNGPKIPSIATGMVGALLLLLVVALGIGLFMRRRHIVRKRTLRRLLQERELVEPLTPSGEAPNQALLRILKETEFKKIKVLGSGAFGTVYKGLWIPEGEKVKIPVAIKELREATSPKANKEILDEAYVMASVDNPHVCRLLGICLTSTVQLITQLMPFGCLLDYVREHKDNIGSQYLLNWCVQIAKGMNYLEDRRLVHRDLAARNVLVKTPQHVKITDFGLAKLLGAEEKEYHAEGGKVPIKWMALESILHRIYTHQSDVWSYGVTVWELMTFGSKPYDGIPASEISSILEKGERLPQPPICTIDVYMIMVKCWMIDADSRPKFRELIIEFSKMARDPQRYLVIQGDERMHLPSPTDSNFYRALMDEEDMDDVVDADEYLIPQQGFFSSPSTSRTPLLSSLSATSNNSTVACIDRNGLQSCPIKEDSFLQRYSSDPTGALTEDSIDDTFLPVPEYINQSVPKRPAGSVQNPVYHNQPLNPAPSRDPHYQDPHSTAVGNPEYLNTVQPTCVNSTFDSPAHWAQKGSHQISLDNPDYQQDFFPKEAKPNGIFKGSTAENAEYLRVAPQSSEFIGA
Chain of Mitogen-activated protein kinase 13 (Homo sapiens) (O15264 whole entry, the tested form may be a part): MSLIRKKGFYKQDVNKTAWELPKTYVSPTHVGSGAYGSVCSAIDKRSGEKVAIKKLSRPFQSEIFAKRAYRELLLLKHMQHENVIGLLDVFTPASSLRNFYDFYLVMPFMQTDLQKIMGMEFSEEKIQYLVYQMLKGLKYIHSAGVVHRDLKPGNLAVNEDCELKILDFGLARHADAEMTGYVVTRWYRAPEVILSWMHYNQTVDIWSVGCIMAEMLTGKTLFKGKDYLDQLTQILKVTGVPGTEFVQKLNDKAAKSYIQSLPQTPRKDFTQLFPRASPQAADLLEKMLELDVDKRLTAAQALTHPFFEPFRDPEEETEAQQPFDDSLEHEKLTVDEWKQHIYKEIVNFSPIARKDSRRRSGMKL

Compound: CC(C)Nc1sc(C(=O)c2ccc(Cl)s2)c(N)c1C#N
- Activity [1]: 100%
- Activity [2]: 100%
- Activity [3]: 66%
- Activity [4]: 100%
- Activity [5]: 82%
- Activity [6]: 100%
- Activity [7]: 81%
- Activity [8]: 91%
- Activity [9]: 100%
- Activity [10]: 82%
- Activity [11]: 81%
- Activity [12]: 79%
- Activity [13]: 100%
- Activity [14]: 100%
- Activity [15]: 87%
- Activity [16]: 100%
- Activity [17]: 91%
- Activity [18]: 100%
- Activity [19]: 83%
- Activity [20]: 93%
- Activity [21]: 100%
- Activity [22]: 93%
- Activity [23]: 100%
- Activity [24]: 95%
